{
  "source": "patent US5624935A",
  "about": "“Heterocyclic compounds having anti-diabetic activity and their use” (Sankyo Company, Limited, priority 1994, dated 1997)",
  "key": {"[1]": {"molecular_target": "T1, Bovine lens aldose reductase (Bos taurus, UniProt P16116)", "T1 construct": "Bovine lens aldose reductase was separated and partially purified; from tissue; host or cells: bovine lens", "assay": "Inhibition of Aldose reductase", "assay_type": "biochemical", "details": "for inhibition at 5 µg/mL: read-out: Inhibition at 5 μg/ml", "description": "Bovine lens aldose reductase was separated and partially purified by the method of S. Hyman and J. H. Kinoshita [J. Biol. Chem., 240, 877 (1965)] and K. Inagaki, I. Miwa and J. Okuda [Arch. Biochem. Biophys., 316, 337 (1982)], and its activity was determined photometrically by the method of Varma et al. [Biochem. Pharmac., 25, 2505 (1976)]. Inhibition of enzyme activity was measured for the compounds of the present invention at a concentration of 5 μg/ml, and the measured values were used to calculate the IC50 values."}, "blood glucose level": {"test_system": "blood glucose level", "assay": "Hypoglycemic activity in hyperglycemic KK mice", "assay_type": "in vivo, hyperglycemic male mice of the KK strain", "details": "Mus musculus, oral, 18 hours, vs solvent-only group, read-out: Hypoglycemic effect", "description": "The test animals used were hyperglycemic male mice of the KK strain, each having a body weight of at least 40 g. The compounds under test were mixed with a 1:1 by volume mixture of polyethylene glycol 400 and water. Each animal was orally administered a test compound in the amount shown in the following Table 6 and then allowed to feed freely for 18 hours. At the end of this time, blood was collected from the tail veins without anesthesia. The blood glucose level (BGL) was determined by means of a glucose analyzer (GL-101, manufactured by Mitsubishi Kasei Co. or a Glucoroder-F manufactured by Shino Test Co.).\nThe hypoglycemic effect was calculated by the following equation: [formula] where: BGLs is the blood glucose level in the group administered a solvent only, but no active compound; and\nBGLt is the blood glucose level in the group administered a test compound.\nThe results are shown in the following Table 6, in which each compound of the present invention is identified by the number of one of the following Examples in which its preparation is illustrated."}, "male F344 rats": {"test_system": "male F344 rats", "assay": "Toxicity, 2 weeks oral in rats", "assay_type": "in vivo", "details": "for mortality rate: oral, 50 mg/kg per day, 2 weeks, male F344 rats; for abnormalities which could be attributed to the test compounds: rat, in vivo, po, 50 mg/kg/day", "description": "The toxicity of the compounds of the present invention was tested on male F344 rats, divided into groups of 5. The test compound was adminstered orally to each test animal at a dose of 50 mg/kg of body weight per day for 2 weeks. The test compounds used were those of Examples 7 and 17 ."}},
  "note": "pIC50: −log10 of the molar value.",
  "data": [
    {"smiles": "O=C1NC(=O)C(Cc2ccc(OCC3Cc4ccccc4N3)cc2)S1", "note": "(stereo not drawn) [Example 1, 5-[4-(Indolin-2-ylmethoxy)benzyl]thiazolidine-2,4-dione]", "values": [
      {"measurement": "inhibition at 5 µg/mL", "setting": "[1]", "value": 54.5, "unit": "%"},
      {"measurement": "inhibition in vivo at 10 mg/kg", "setting": "blood glucose level", "value": 13.2, "unit": "%"}
    ]},
    {"smiles": "CN1c2ccccc2CC1COc1ccc(CC2SC(=O)NC2=O)cc1", "note": "(stereo not drawn) [Example 2, 5-[4-(1-Methylidolin-2-ylmethoxy)benzyl]thiazolidine-2,4-dione]", "values": [
      {"measurement": "pIC50", "setting": "[1]", "value": 5.06},
      {"measurement": "inhibition at 5 µg/mL", "setting": "[1]", "value": 58.1, "unit": "%"},
      {"measurement": "inhibition in vivo at 1 mg/kg", "setting": "blood glucose level", "value": 27.7, "unit": "%"}
    ]},
    {"smiles": "O=C1NC(=O)C(Cc2ccc(OCCN3CCc4ccccc43)cc2)S1", "note": "(stereo not drawn) [Example 3, 5-{4-[2-(Indolin-1-yl)ethoxyl]benzyl}thiazolidine-2,4-dione]", "values": [
      {"measurement": "pIC50", "setting": "[1]", "value": 5.00},
      {"measurement": "inhibition in vivo at 10 mg/kg", "setting": "blood glucose level", "value": 27, "unit": "%"}
    ]},
    {"smiles": "O=C1NC(=O)C(Cc2ccc(OCCc3c[nH]c4ccccc34)cc2)S1", "note": "(stereo not drawn) [Example 4, 5-{4-[2-(Indol-3-yl)ethoxy]benzyl}thiazolidine-2.4dione]", "values": [
      {"measurement": "pIC50", "setting": "[1]", "value": 5.20}
    ]},
    {"smiles": "O=C1NC(=O)C(Cc2ccc(OCCn3cc(C(c4ccccc4)(c4ccccc4)c4ccccc4)c4ccccc43)cc2)S1", "note": "(stereo not drawn) [Example 5, 5-{4-[2-(3-Triphenylmethylindol-1-yl)ethoxyl]-benzyl}thiazolidine-2,4-dione]", "values": [
      {"measurement": "inhibition in vivo at 10 mg/kg", "setting": "blood glucose level", "value": 16.2, "unit": "%"}
    ]},
    {"smiles": "O=C1NC(=O)C(Cc2ccc(OCCn3ccc4ccccc43)cc2)S1", "note": "(stereo not drawn) [Example 6, 5-{4-[2-(Indol-1-yl)ethoxy]benzyl}thiazolidine-1-dione]", "values": [
      {"measurement": "inhibition at 5 µg/mL", "setting": "[1]", "value": 47, "unit": "%"},
      {"measurement": "inhibition in vivo at 10 mg/kg", "setting": "blood glucose level", "value": 20.9, "unit": "%"}
    ]},
    {"smiles": "Cn1c(COc2ccc(CC3SC(=O)NC3=O)cc2)nc2cccnc21", "note": "(stereo not drawn) [Example 7, 5-{4-(3-Methyl-3H-imidazo[4,5-b]pyridin-2-methoxyl)-benzyl}thiazolidine-2,4-dione]", "values": [
      {"measurement": "pIC50", "setting": "[1]", "value": 5.57},
      {"measurement": "inhibition in vivo at 1 mg/kg", "setting": "blood glucose level", "value": 24.7, "unit": "%"},
      {"measurement": "mortality rate", "setting": "male F344 rats", "value": "zero"},
      {"measurement": "abnormalities which could be attributed to the test compounds", "setting": "male F344 rats", "value": "no abnormalities"}
    ]},
    {"smiles": "O=C1NC(=O)C(Cc2ccc(OCc3cn4ccccc4n3)cc2)S1", "note": "(stereo not drawn) [Example 9, 5-{4-(Imidazo[1,2-a]pyridin-2-ylmethoxy)benzyl}-thiazolidine2,4-dione]", "values": [
      {"measurement": "inhibition at 5 µg/mL", "setting": "[1]", "value": 53.3, "unit": "%"},
      {"measurement": "inhibition in vivo at 10 mg/kg", "setting": "blood glucose level", "value": 27.6, "unit": "%"}
    ]},
    {"smiles": "Cn1c(COc2ccc(CC3SC(=O)NC3=O)cc2)cc2ccccc21", "note": "(stereo not drawn) [Example 10, 5-[4-(1-Methylindol-2-ylmethoxy)benzyl]thiazolidine-2,4-dione]", "values": [
      {"measurement": "inhibition in vivo at 1 mg/kg", "setting": "blood glucose level", "value": 11.6, "unit": "%"}
    ]},
    {"smiles": "CCn1c(COc2ccc(CC3SC(=O)NC3=O)cc2)nc2cccnc21", "note": "(stereo not drawn) [Example 12, 5-{4-(3-Ethyl-3H-imidazo[4,5-b]pyridin-2-ylmethoxy)-benzyl}thiazolidine-2,4-dione]", "values": [
      {"measurement": "pIC50", "setting": "[1]", "value": 5.35}
    ]},
    {"smiles": "Cn1c(COc2ccc(CC3SC(=O)NC3=O)cc2)nc2ncccc21", "note": "(stereo not drawn) [Example 13]", "values": [
      {"measurement": "pIC50", "setting": "[1]", "value": 5.15},
      {"measurement": "inhibition in vivo at 1 mg/kg", "setting": "blood glucose level", "value": 34, "unit": "%"}
    ]},
    {"smiles": "Cn1c(CCCOc2ccc(CC3SC(=O)NC3=O)cc2)nc2cccnc21", "note": "(stereo not drawn) [Example 14, 5-[4-{3-(3-Methyl-3H-imidazo[4,5-b]pyridin-2-yl)-propoxy}-benzyl]thiazolidine-2,4-dione]", "values": [
      {"measurement": "inhibition at 5 µg/mL", "setting": "[1]", "value": 53.9, "unit": "%"}
    ]},
    {"smiles": "O=C1NC(=O)C(Cc2ccc(OCc3nc4ncccc4[nH]3)cc2)S1", "note": "(stereo not drawn) [Example 15, 5-{4-(1H-Imidazo[4,5-b]pyridin-2-ylmethoxy)benzyl}-thiazolidine-2,4-dione]", "values": [
      {"measurement": "pIC50", "setting": "[1]", "value": 5.17},
      {"measurement": "inhibition in vivo at 1 mg/kg", "setting": "blood glucose level", "value": 13.8, "unit": "%"}
    ]},
    {"smiles": "Cc1ccnc2c1nc(COc1ccc(CC3SC(=O)NC3=O)cc1)n2C", "note": "(stereo not drawn) [Example 16, 5-{4-(3,7-Dimethyl-3H-imidazo[4,5-b]pyridin-2-ylmethoxy)benzyl}thiazolidine-2,4-dione]", "values": [
      {"measurement": "pIC50", "setting": "[1]", "value": 5.01},
      {"measurement": "inhibition at 5 µg/mL", "setting": "[1]", "value": 59.1, "unit": "%"}
    ]},
    {"smiles": "Cn1c(COc2ccc(CC3SC(=O)NC3=O)cc2)nc2ccc(Cl)nc21", "note": "(stereo not drawn) [Example 17, 5-{4-(5-Chloro-3-methyl-3H-imidazo[4,5-b]pyridin-2-ylmethoxy)benzyl}thiazolidine-2,4-dione]", "values": [
      {"measurement": "pIC50", "setting": "[1]", "value": 5.35},
      {"measurement": "inhibition in vivo at 1 mg/kg", "setting": "blood glucose level", "value": 37.1, "unit": "%"},
      {"measurement": "mortality rate", "setting": "male F344 rats", "value": "zero"},
      {"measurement": "abnormalities which could be attributed to the test compounds", "setting": "male F344 rats", "value": "no abnormalities"}
    ]},
    {"smiles": "Cn1c(COc2ccc(CC3SC(=O)NC3=O)cc2)nc2cc(C(F)(F)F)cnc21", "note": "(stereo not drawn) [Example 18, 5-{4-(3-Methyl-6-trifluoromethyl-3H-imidazo[4,5-b]pyridin-2-ylmethoxy)benzyl}thiazolidine-2,4-dione]", "values": [
      {"measurement": "pIC50", "setting": "[1]", "value": 5.70},
      {"measurement": "inhibition at 5 µg/mL", "setting": "[1]", "value": 76.3, "unit": "%"}
    ]},
    {"smiles": "O=C1NC(=O)C(Cc2ccc(OCc3nc4cccnc4n3Cc3ccc(Cl)cc3)cc2)S1", "note": "(stereo not drawn) [Example 20, 5-(4-{3-(4-Chlorobenzyl)-3H-imidazo[4,5-b]pyridin-2-ylmethoxyl}benzyl)thiazolidine-2,4-dione]", "values": [
      {"measurement": "pIC50", "setting": "[1]", "value": 5.43},
      {"measurement": "inhibition at 5 µg/mL", "setting": "[1]", "value": 61.6, "unit": "%"},
      {"measurement": "inhibition in vivo at 1 mg/kg", "setting": "blood glucose level", "value": 24.5, "unit": "%"}
    ]},
    {"smiles": "Cn1c(COc2ccc(CC3SC(=O)NC3=O)cc2)nc2cc(Br)cnc21", "note": "(stereo not drawn) [Example 22, 5-{4-(6-Bromo-3-methyl-3H-imidazo[4,5-b]pyridin-2-ylmethoxy)benzyl}thiazolidine-2,4-dione]", "values": [
      {"measurement": "pIC50", "setting": "[1]", "value": 5.40},
      {"measurement": "inhibition at 5 µg/mL", "setting": "[1]", "value": 77.2, "unit": "%"},
      {"measurement": "inhibition in vivo at 1 mg/kg", "setting": "blood glucose level", "value": 10.2, "unit": "%"}
    ]},
    {"smiles": "Cn1c(COc2ccc(CC3SC(=O)NC3=O)cc2)nc2cc(Cl)cnc21", "note": "(stereo not drawn) [Example 23, 5-{4-(6-Chloro-3-methyl-3H-imidazo[4,5-b]pyridin-2-ylmethoxy)benzyl}thiazolidine-2,4-dione]", "values": [
      {"measurement": "pIC50", "setting": "[1]", "value": 5.49},
      {"measurement": "inhibition at 5 µg/mL", "setting": "[1]", "value": 94.9, "unit": "%"},
      {"measurement": "inhibition in vivo at 1 mg/kg", "setting": "blood glucose level", "value": 21.7, "unit": "%"}
    ]},
    {"smiles": "Cn1c(COc2ccc(CC3SC(=O)NC3=O)cc2)nc2cnccc21", "note": "(stereo not drawn) [Example 25]", "values": [
      {"measurement": "pIC50", "setting": "[1]", "value": 5.62},
      {"measurement": "inhibition at 5 µg/mL", "setting": "[1]", "value": 81.6, "unit": "%"}
    ]},
    {"smiles": "O=C1NC(=O)C(Cc2ccc(OCc3nc4cccnc4n3-c3ccccc3)cc2)S1", "note": "(stereo not drawn) [Example 27]", "values": [
      {"measurement": "pIC50", "setting": "[1]", "value": 5.70},
      {"measurement": "inhibition at 5 µg/mL", "setting": "[1]", "value": 91.8, "unit": "%"}
    ]}
  ]
}
